Reference: patent EP0672415A1, “Organopathy preventing, curing or ameliorating agent” (priority 1994, dated 1995)
“And” between values parts separate entries of the source, which are not always exact repeats. Equal entries are not always repeated. Where two headings read alike, the source gives them in different places.

Assays:
[1] = system: rat liver transplantation; details: livers ischemic for 60 min, untreated group 0%, cited from earlier work
[2] = system: Large-White pigs; assay: Orthotopic liver transplantation following 8 hour cold preservation in pigs (second description); type: in vivo
Method: Orthotopic liver transplantations following 8 hour cold preservation were performed. Large-White pigs weighing 35-40 Kg were used after 24 hours starvation. Pigs were randomly divided into 2 groups. In Group 1, the PAF antagonist treatment group, consisting of 9 donors and 9 recipients, the PAF antagonist the compound (I) was given in the solutions (1mg/L) for flush-out and preservation at donor operation. It was also administered into recipients (0.3mg/Kg body weight) as an infusion and given in the solution (1mg/L) for rinsing before reperfusion of the graft (RPF) at recipient operation. Group 2, the untreated control group, consisted of 9 donors and 9 recipients that received the same solutions or intravenous infusion only without the compound (I). The solutions for flush-out and preservation of the graft liver were simplified UW solution in which hydroxyethyl starch was omitted from the original formulation of UW solution described for liver preservation, according to the reports showing that hydroxyethyl starch is not an essential component in UW solution.
Following premedication with ketamine (10mg/Kg i.m.), the ear vein was cannulated and saline perfusion was started. After injection of ketamine (5mg/Kg i.v.) and pancuronium (0.2mg/Kg i.v.), the animals were […]. Anesthesia was maintained by inhalation with 3L oxygen, 4L nitrous oxide and 1.5% ethranne. […] Following intravenous injection of heparine (10,000IU), the subrenal abdominal aorta was cannulated. […] The gallbladder was incised and washed with saline. The liver was harvested and dipped in 4üÄ UW solution bath.
The recipient pigs were anesthesized as described in donor operation. The right carotid artery and the right subclavian vein were then cannulated for blood pressure monitoring and blood sampling and for intravenous fluid infusion, respectively. After laparotomy, the liver was dissected free and removed. During anhepatic period, the portal blood was passively shunted by a tube between the portal vein and the right external jugular vein. […] The graft liver was reperfused with the portal blood after completion of the portal vein anastomosis. The bile duct was drained by external tube fistula. Immediately before the anastomosis of the portal vein, to remove the preservation solution, the graft liver was flushed with 500ml of Ringers lactate containig dextrase (5g%), mannitol (1.25g%) and sodium bicarbonate (0.21g%) as previously described. […] In our operations, the duration between the warm rinsing and RPF was less than 3 miniutes by using the cuff technique in portal vein anastomosis.
Intraoperative fluid infusion was as follows; 500ml of saline containing dextrose (2.5g%) was infused through the ear vein between the begining of the operation and the anhepatic period. In Group 1, The compound (I) (0.3mg/Kg) was mixed in this solution. During the anhepatic period, 500-750ml of saline containing sodium bicarbonate (0.21g%) was rapidly infused to prevent hypotension. Prior to RPF, sodiumu bicarbonate (1.05g) and calcium gluconate (0.1g) were injected intravenously. As a total, 1.5-2L of the fluid was infused during operation without any blood transfusion. Postoperatively, 0.5-1.0L of 5% dextrose solution was infused for the first 12 hours. Sodium bicarbonate was given to correct metabolic acidosis when necessary. No immunosuppressant was administered.
(§1) (1-Ethyl-2-[N-(2-methoxy)benzoyl-N-[(2R)-2-methoxy-3-( 4-octadecylcarbamoyloxy)piperidinocarbonyloxypopoxy]carbonyl]aminomethylpyridinium chloride, molecular weight 860.5) was supplied in powder form by Eisai Co.,Ltd. (Japan). It is soluble in water and saline, and a 1.5 mg/ml solution was prepared with saline immediately before use.
AKBR was measured at the time of cannulation in the right carotid artery (before), and at 1, 2, 4 and 12 hours after RPF. […]

[3] = system: porcine liver transplantation model; assay: Porcine liver transplantation model (8 hr cold preservation, sympatric transplantation); type: in vivo, swine
Method: A model was employed in which swine each weighing 30 to 40 kg were used, the livers were extirpated therefrom and preserved at low temperature for 8 hr, and sympatric liver transplantation was carried out. More specifically, the swine were starved for 24 hr, and randomly divided into two groups. Group 1 consisted of 9 donors and 9 recipients, which were treated with the above compound of the present invention. In the surgical operation of the donors, the compound (I) was added to the perfusate and the preservation fluid (1 mg/ℓ). Further, the compound (I) was continuously intravenously administered to the recipients (0.3 mg/kg) and added, in the surgical operation thereof, to the washing fluid for washing away the preservation fluid from the interior of each of the transplant livers (1 mg/ℓ).
Group 2 as a control group not treated with the compound of the present invention consisted of 9 donors and 9 recipients, for which the same continuous intravenous administration was carried out with the use of the same fluids as for Group 1, except that the compound (I) was not added thereto. A University of Wisconsin (hereinafter referred to as "UW") fluid prepared in a simplified manner was used for the perfusion and preservation of the transplant livers. The fluid was one obtained by omitting hydroxyethylstarch from the composition of the UW fluid customarily employed in the preservation of livers.
For each of the donors, premedication with ketamine (10 mg/kg) was conducted, and the auricular vein was cannulated to initiate the administration of physiological saline. Ketamine (5 mg/kg, i.v.) and pancronium (0.2 mg/kg, i.v.) were administered, and thereafter the airway was secured. The donor under surgical operation was kept anesthetized by inhalation of 3 ℓ of oxygen, 4 ℓ of laughing gas and 1.5% ethrane.
Heparin (10,000 IU) was intravenously injected, and thereafter the subrenal ventral aorta was cannulated. […] The gallbladder was dissected, and washed with physiological saline. The resultant liver was taken out, and immersed in a UW fluid bath. […] The transplant liver was preserved at 4°C for 8 hr.
Each of the recipient swine was also anesthetized in the same manner as described above with respect to the surgical operation of the donors. The right carotid artery and the right subclavian vein were cannulated for blood pressure monitoring and blood sampling and for intravenous injection, respectively. The abdomen was cut open, and the liver was detached and removed. During the ahepatic period, the blood from the portal vein was passively bypassed through a shunt tube inserted into the portal vein and the right external jugular vein. […] After the completion of the anastomosis with the portal vein, the transplant liver was reperfused with the blood from the portal vein.
The bile duct was drained outside the body through a biliary external fistula tube.
Just before the anastomosis with the portal vein, the transplant liver was perfused with lactated Ringer's solution (500 ml) containing dextrose (5 wt.%), mannitol (1.25 wt.%) and sodium bicarbonate (0.21 wt.%) to thereby remove the preservation fluid. The washing fluid was held at 30 to 37°C. Within 3 min of the hot washing, the transplant liver was reperfused.
During the ahepatic period starting with the initiation of the surgical operation, physiological saline (500 ml) containing dextrose (2.5 wt.%) was administered through the auricular vein. For the Group 1, the compound (I) (0.3 mg/kg) was mixed in the saline solution. During the ahepatic period, 500 to 750 ml of physiological saline containing sodium bicarbonate (0.21 wt.%) was rapidly injected in order to prevent blood pressure lowering. Sodium bicarbonate (1.05 g) and calcium gluconate (0.1 g) were intravenously administered prior to the reperfusion of the transplant liver. During the surgical operation, no transfusion was conducted, and a total of 1.5 to 2.0 ℓ of infusion solution was administered. […]

[4] = Solubility in water and physiological saline; type: physicochemical
Method: The compound (I) soluble in both water and physiological saline was dissolved in physiological saline to prepare a solution of the compound (I) (1.5 mg/ml) prior to use.
as §1

[5] = system: Slc:SD rats; assay: Acute toxicity test, single intravenous administration, rats; type: in vivo, Rat; details: for Acute toxicity (LD₅₀): Rat, Intravenous Injection, single administration
Method: (§2) A single administration toxicity test was carried out by effecting intravenous injections (medium: physiological saline) to a group consisting of five male and five female 7 to 8-weeks-old Slc:SD rats and a group consisting of five male and five female 7 to 8-weeks-old Slc:ICR mice.

[6] = system: Slc:ICR mice; assay: Acute toxicity test, single intravenous administration, mice; type: in vivo, Mouse; details: for Acute toxicity (LD₅₀): Mouse, Intravenous Injection, single administration
Method: as §2

[7] = system: human platelets; details: reported value; read-out: IC50 value, inhibition of aggregation of human platelets induced by PAF; cited from earlier work
[8] = Group 1, 4 hr after the reperfusion (p<0.05)

COC1=C(OC)C(=O)C(C/C=C(\C)CC/C=C(\C)CC/C=C(\C)CC/C=C(\C)CC/C=C(\C)CC/C=C(\C)CC/C=C(\C)CC/C=C(\C)CC/C=C(\C)CCC=C(C)C)=C(C)C1=O [coenzyme Q₁₀]
one-week survival rate ([1]; 10 mg/kg intravenously to the donor rats prior to the operation): about 50%
one-week survival rate ([1]; 10 mg/kg intravenously to the recipient rats prior to the operation): about 50%

CCCCCCCCCCCCCCCCCCNC(=O)OC1CCN(C(=O)OCC(COC(=O)N(Cc2cccc[n+]2CC)C(=O)c2ccccc2OC)OC)CC1.[Cl-] (stereo not drawn) [compound (I), 1-ethyl-2-[N-(2-methoxy)benzoyl-N-{2-methoxy-3-(4-octadecylcarbamoyloxy)piperidinocarbonyloxypropoxy}carbonyl]aminomethylpyridinium chloride]
hematocrit values ([2]; Group 1 (both groups alike), course after RPF): increased markedly at 2 hours after RPF, and then gradually decreased
survival of all the 9 pigs ([2]; Group 1 (treated)): more than 4 days
platelet count ([2]; Group 1, at 2 hours after RPF): slightly increased at 2 hours
lactate level in arterial blood ([2]; Group 1, at 12 hours after RPF): restored to the primary levels
Histological examination by light microscopy (HE stain): necrosis of hepatocytes, exudate of inflammatory cells, microvesicular changes ([2]; Group 1, reperfused liver at 1 hour after RPF): rarely seen
content of glycogen in hepatocytes (PAS staining) ([2]; Group 1 versus Group 2, at 1 hour after RPF): lesser content of glycogen in hepatocytes in Group 2 than in Group 1
AKBR ([2]; Group 1 versus Group 2, at 4 hours after RPF): tendency to be higher in Group 1 than in Group 2, though not significant
Survival ([2]; individual pigs of Group 1 (n=9) (treated): 1mg/L in flush-out, preservation and rinsing solutions, 0.3mg/Kg infusion to recipients, 0.3 mg/kg): >7 POD (4×) and 4 POD and 5 POD and 6 POD (2×) and 7 POD
hematocrit values ([3]; Group 1 (both groups alike), course after the reperfusion): rapidly increased 2 hr after the reperfusion, and gradually decreased thereafter
survival of all of the 9 swine ([3]; Group 1 (treated group)): at least 4 days
12-hr or longer survinal rate ([3]; Group 1, 9/9, Group 2 (untreated) 56% (5/9)): 100%
lactate level of arterial blood ([3]; Group 1, 2 hr after the reperfusion): 9.9 ± 1.0 mmol/L
platelet count ([3]; Group 1, 2 hr later): 309.8 ± 21.6 ×10³/µℓ
leukocyte count ([3]; Group 1, 2 hr later (p<0.01 vs Group 2)): 14.3 ± 1.8 ×10³/µℓ
GOT level [3, 8]: 712 ± 97 U/ℓ
GPT level [3, 8]: 65 ± 4 U/ℓ
lactate level of arterial blood [3, 8]: 6.2 ± 1.1 mmol/L
lactate level of arterial blood ([3]; Group 1, 12 hr after the reperfusion): recovered to the initial level
AKBR ([3]; Group 1, 12 hr after the reperfusion, significantly higher than Group 2 (p<0.05)): recovered to the normal condition level
platelet count ([3]; Group 1, 12 hr later): 227.8 ± 13.4 ×10³/µℓ
AKBR ([3]; Group 1, during 4 hr after the reperfusion, compared with Group 2): only slightly higher than that of the Group 2
leukocyte count ([3]; Group 1, prior value): 11.5 ± 1.1 ×10³/µℓ
platelet count ([3]; Group 1, prior value): 294.4 ± 19.8 ×10³/µℓ
Histologic study (optical microscope): hepatocyte necroses, stagnation of hepatosinusoidal inflammatory cells, vacuolar degeneration ([3]; Group 1, reperfused liver 1 hr after the reperfusion): little observed
glycogen content of the hepatocytes (staining) ([3]; Group 1 versus Group 2, 1 hr after the reperfusion): the glycogen content of the hepatocytes in the Group 2 was smaller than that in the Group 1
Period of Survival ([3]; individual recipient swine of Group 1 (treated): 1 mg/ℓ in perfusate, preservation fluid and washing fluid, 0.3 mg/kg i.v. to recipients, 0.3 mg/kg): 7 days or more (4×) and 4 days and 5 days and 6 days (2×) and 7 days
solubility [4]: soluble
Acute toxicity (LD₅₀) ([5]; Female): 22.8 mg/kg
Acute toxicity (LD₅₀) ([5]; Male): 18.2 mg/kg
LD₅₀ values relative to the clinical dose in intravenous injection ([5]; rat LD₅₀ values of Table 1): ≥ 50 times
Acute toxicity (LD₅₀) ([6]; Female): 50.0 mg/kg
Acute toxicity (LD₅₀) ([6]; Male): 46.8 mg/kg
LD₅₀ values relative to the clinical dose in intravenous injection ([6]; mouse LD₅₀ values of Table 1): ≥ 50 times
IC50 [7]: 0.66 nM
